In ChEMBL document CHEMBL6182930, “Discovery of TBK1Molecular Glue Degraders as a Potential Strategy for the Treatment of Autosomal Dominant Polycystic Kidney Disease (ADPKD)” (J Med Chem, 2025):
The source made the active and inactive calls. The calls are words filed in the database; no cut-off is given here.

Tests used:
[1] = Half-life in rat at 2 mg/kg, iv measured after 24 hrs by LC-MS/MS analysis; format: ADME, organism-based; details: in vivo
[2] = Tmax in rat at 2 mg/kg, iv measured after 24 hrs by LC-MS/MS analysis; format: ADME, organism-based; details: in vivo
[3] = Volume of distribution at steady state in rat at 2 mg/kg, iv measured after 24 hrs by LC-MS/MS analysis; format: ADME, organism-based; details: in vivo, read-out: Vdss
[4] = Cmax in rat at 10 mg/kg, po measured after 24 hrs by LC-MS/MS analysis; format: ADME, organism-based; details: in vivo
[5] = AUC (0 to infinity) in rat at 10 mg/kg, po measured after 24 hrs by LC-MS/MS analysis; format: ADME, organism-based; details: in vivo
[6] = Oral bioavailability in rat at 10 mg/kg measured after 24 hrs by LC-MS/MS analysis; format: ADME, organism-based; details: in vivo
[7] = target: T1, E3 ubiquitin-protein ligase RNF126/Serine/threonine-protein kinase TBK1 (Homo sapiens, UniProt Q9UHD2+Q9BV68); test: Molecular glue activity at RNF126/TBK1 in HEK293T cells assessed as induction of TBK1 degradation incubated for 16 hrs by Western blot analysis; format: cell-based
[8] = target: T1, E3 ubiquitin-protein ligase RNF126/Serine/threonine-protein kinase TBK1; test: Molecular glue activity at RNF126/TBK1 in HEK293T cells assessed as induction of TBK1 degradation at 1 uM measured after 6 hrs by Western blot analysis; format: cell-based
Target sequence in this assay (Q9BV68 2-311 partner limits assumed): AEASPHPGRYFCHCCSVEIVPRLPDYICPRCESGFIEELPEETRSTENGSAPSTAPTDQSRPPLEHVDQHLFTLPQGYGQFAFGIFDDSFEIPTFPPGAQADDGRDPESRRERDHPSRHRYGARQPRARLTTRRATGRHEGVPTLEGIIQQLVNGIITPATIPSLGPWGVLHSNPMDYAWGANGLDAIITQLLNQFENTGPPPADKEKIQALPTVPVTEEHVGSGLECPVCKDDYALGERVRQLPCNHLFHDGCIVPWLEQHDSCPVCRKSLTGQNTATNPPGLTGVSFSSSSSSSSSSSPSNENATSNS
Target sequence in this assay (Q9UHD2 whole entry): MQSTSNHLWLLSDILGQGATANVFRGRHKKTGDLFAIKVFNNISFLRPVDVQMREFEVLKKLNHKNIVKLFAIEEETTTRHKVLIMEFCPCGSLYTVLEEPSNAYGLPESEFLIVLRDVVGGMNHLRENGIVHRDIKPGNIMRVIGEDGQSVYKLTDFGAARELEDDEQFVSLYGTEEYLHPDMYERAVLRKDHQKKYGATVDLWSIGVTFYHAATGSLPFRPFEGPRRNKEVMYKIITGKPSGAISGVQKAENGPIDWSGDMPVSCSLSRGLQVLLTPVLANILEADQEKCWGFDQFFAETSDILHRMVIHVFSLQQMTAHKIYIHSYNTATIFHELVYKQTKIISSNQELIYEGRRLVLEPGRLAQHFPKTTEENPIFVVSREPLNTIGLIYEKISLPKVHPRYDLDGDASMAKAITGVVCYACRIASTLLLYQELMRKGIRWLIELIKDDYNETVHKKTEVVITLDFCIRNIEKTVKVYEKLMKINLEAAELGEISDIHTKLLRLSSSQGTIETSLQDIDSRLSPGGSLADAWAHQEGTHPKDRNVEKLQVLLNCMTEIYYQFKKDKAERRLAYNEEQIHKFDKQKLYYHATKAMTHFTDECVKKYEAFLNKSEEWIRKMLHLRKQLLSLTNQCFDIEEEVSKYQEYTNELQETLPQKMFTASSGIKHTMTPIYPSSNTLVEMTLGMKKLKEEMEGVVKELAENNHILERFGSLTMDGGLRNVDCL

[9] = target: T1, E3 ubiquitin-protein ligase RNF126/Serine/threonine-protein kinase TBK1; test: Molecular glue activity at RNF126/TBK1 in HEK293T cells assessed as induction of TBK1 degradation at 1 uM measured after 24 hrs by Western blot analysis; format: cell-based
Target sequence in this assay (Q9BV68 2-311 partner limits assumed): as the sequence (Q9BV68 2-311 partner limits assumed) above
Target sequence in this assay (Q9UHD2 whole entry): as the sequence (Q9UHD2 whole entry) above

[10] = target: T1, E3 ubiquitin-protein ligase RNF126/Serine/threonine-protein kinase TBK1; test: Molecular glue activity at RNF126/TBK1 in HEK293T cells assessed as induction of TBK1 degradation at 1 uM pretreated with MG132 for 2 hrs followed by compound addition and measured after 16 hrs by Western blot analysis; format: cell-based
Target sequence in this assay (Q9BV68 2-311 partner limits assumed): as the sequence (Q9BV68 2-311 partner limits assumed) above
Target sequence in this assay (Q9UHD2 whole entry): as the sequence (Q9UHD2 whole entry) above

Mus musculus [11] = test: Inhibition of renal cystogenesis in PKD1 knockout ADPKD (Pkd1 flox/flox; Ksp-Cre) C57BL/6 mouse model assessed as reduction in relative kidney size at 5 mg/kg, SC administered from postnatal day 6 and measured on postnatal day 12; format: functional, organism-based; details: time 7.0 day
Mus musculus [12] = test: In vivo inhibition of TBK1-mediated activation of inflammatory pathway in PKD1 knockout ADPKD (Pkd1 flox/flox; Ksp-Cre) C57BL/6 mouse model assessed as decrease in phosphorylated IRF3 level in kidney at 5 mg/kg, SC administered from postnatal day 6 and measured on postnatal day 12 by Western blot analysis; format: functional, organism-based; details: time 7.0 day
Mus musculus [13] = test: Anti-inflammatory activity in PKD1 knockout ADPKD (Pkd1 flox/flox; Ksp-Cre) C57BL/6 mouse model assessed as decrease in Ccl2 level in kidney at 5 mg/kg, SC administered from postnatal day 6 and measured on postnatal day 12 by RT-qPCR analysis; format: functional, organism-based; details: time 7.0 day
Mus musculus [14] = test: Anti-inflammatory activity in PKD1 knockout ADPKD (Pkd1 flox/flox; Ksp-Cre) C57BL/6 mouse model assessed as decrease in IL-1beta level in kidney at 5 mg/kg, SC administered from postnatal day 6 and measured on postnatal day 12 by RT-qPCR analysis; format: functional, organism-based; details: time 7.0 day
Mus musculus [15] = test: Anti-inflammatory activity in PKD1 knockout ADPKD (Pkd1 flox/flox; Ksp-Cre) C57BL/6 mouse model assessed as decrease in IL-6 level in kidney at 5 mg/kg, SC administered from postnatal day 6 and measured on postnatal day 12 by RT-qPCR analysis; format: functional, organism-based; details: time 7.0 day

half-life [1]: 4.47 h
Tmax [2]: 4.8 min
Vd [3]: 17.3 L/kg
Cmax [4]: 70 nM
AUC(0-inf) [5]: 0.14 µM·h
bioavailability [6]: 2.77%
Activity [7]: Dose-dependent-effect
DC50 [7]: 351 nM
Activity [10]: inactive
SMILES: COc1ccc(C(=O)/C=C/C(=O)N2CCN(CC3CCN(Cc4cccc(Nc5ncc6ccn(CCCNC(=O)C7CCC7)c6n5)c4)CC3)CC2)cc1
Activity [8]: Active; Significant Reduction In Tbk1 Level Observed
Activity [9]: Active; Maximal Tbk1 Degradation Observed
inhibition (Mus musculus [11]): Active
inhibition (Mus musculus [12]): Active
Activity (Mus musculus [13]): Active
Activity (Mus musculus [14]): Active
Activity (Mus musculus [15]): Active
